Results: patent US10798941B2, “Microbiocidal oxadiazole derivatives” (SYNGENTA PARTICIPATIONS AG, priority 2016, dated 2020)

Legend:
[1] = tested on: Uromyces viciae-Fabae; test: Uromyces viciae-fabae / field bean / leaf disc preventative (faba-bean rust); format: in vivo; conditions: foliar, 288 h, 100 ppm in the applied formulation, field bean leaf discs, inoculated two hours after application, assessed 12 days after application, vs untreated, read-out: disease control
Method: Leaf disks or leaf segments of various plant species are cut from plants grown in a greenhouse. The cut leaf disks or segments are placed in multiwell plates (24-well format) onto water agar. The leaf disks are sprayed with a test solution before (preventative) or after (curative) inoculation. Compounds to be tested are prepared as DMSO solutions (max. 10 mg/ml) which are diluted to the appropriate concentration with 0.025% Tween20 just before spraying. The inoculated leaf disks or segments are incubated under defined conditions (temperature, relative humidity, light, etc.) according to the respective test system. A single evaluation of disease level is carried out 3 to 14 days after inoculation, depending on the pathosystem. Percent disease control relative to the untreated check leaf disks or segments is then calculated.
Field bean leaf discs are placed on water agar in multiwell plates (96-well format) and 10 μl of the formulated test compound diluted in acetone and a spreader pipetted onto the leaf disc. Two hours after application leaf discs are inoculated by spraying a spore suspension on the lower leaf surface. The leaf discs are incubated in a climate cabinet at 22° C. with 18 hour day and 70% relative humidity. The activity of a compound is assessed as percent disease control compared to untreated when an appropriate level of disease damage appears in untreated check leaf disks (12 days after application).
The following compounds at 100 ppm in the applied formulation give at least 80% disease control in this test when compared to untreated control leaf discs under the same conditions, which show extensive disease development.

[2] = tested on: Puccinia recondita f. Sp. Tritici; test: Puccinia recondita f. sp. tritici / wheat / leaf disc curative (brown rust); format: in vivo; conditions: foliar, 144 h, 200 ppm in the applied formulation, wheat leaf segments cv. Kanzler, applied 1 day after inoculation, assessed 6 to 8 days after application, vs untreated, read-out: disease control
How it was run: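 Curative test: wheat leaf segments cv. Kanzler on agar inoculated with spore suspension, kept dark at 19 °C/75% RH, then sprayed 1 day post-inoculation with compound diluted in water. Incubated at 19 °C, 75% RH, 12 h light/dark; percent disease control versus untreated scored 6–8 days after application.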

[3] = tested on: Puccinia recondita f. Sp. Tritici; test: Puccinia recondita f. sp. tritici / wheat / leaf disc preventative (brown rust); format: in vivo; conditions: foliar, 168 h, 200 ppm in the applied formulation, wheat leaf segments cv. Kanzler, preventative, inoculated 1 day after application, assessed 7 to 9 days after application, vs untreated, read-out: disease control
How it was run: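 Wheat cv. Kanzler leaf segments on agar were sprayed with formulated compound in water, then inoculated with spores 1 day later. Incubated at 19° C, 75% rh, 12 h light/12 h dark; percent disease control versus untreated scored 7 to 9 days after application.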

[4] = tested on: Phakopsora pachyrhizi; test: Phakopsora pachyrhizi / soybean / leaf disc preventative (Asian soybean rust); format: in vivo; conditions: foliar, 288 h, 200 ppm in the applied formulation, soybean leaf disks, inoculated one day after application, assessed 12 to 14 days after application, vs untreated, read-out: disease control
How it was run: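 Read-out is percent disease control relative to untreated check discs, assessed once untreated discs show adequate disease, 12 to 14 days after application. Compounds, tested at 200 ppm in the applied formulation, are sprayed onto soybean leaf discs one day before inoculation with a spore suspension.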

[5] = tested on: Glomerella Lagenarium (Colletotrichum Lagenarium); test: Glomerella lagenarium (Colletotrichum lagenarium) liquid culture / cucumber / preventative (anthracnose); format: cell-based; conditions: Colletotrichum orbiculare; 20 ppm in the applied formulation; liquid culture in PDB, 24° C., inhibition of growth measured photometrically 3 to 4 days after application, vs untreated; read-out: disease control
How it was run: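 Conidia from cryogenic storage were mixed into potato dextrose broth. This was added to compound diluted from DMSO into 0.025% Tween20, tested at 20 ppm. Plates were incubated in the dark at 24 °C and 96% relative humidity, and growth was read photometrically after 2–7 days as % activity versus untreated check.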

Row | Compound | pest or weed control at 100 ppm [1] [%] | pest or weed control at 200 ppm [2] [%] | pest or weed control at 200 ppm [3] [%] | pest or weed control at 200 ppm [4] [%] | melting point [°C] | inhibition of growth at 20 ppm [5] [%]
1 | CC(C)(C)OC(=O)NCc1cn(Cc2ccc(-c3noc(C(F)(F)F)n3)cc2)nn1 [Compound 1.9, tert-butyl N-[[1-[[4-[5-(trifluoromethyl)-1,2,4-oxadiazol-3-yl]phenyl]methyl]triazol-4-yl]methyl]carbamate] | ≥ 80 | ≥ 80 | ≥ 80 | ≥ 80 | 134.7 to 136.9 | ≥ 80
2 | Cc1cc(C)n(Cc2ccc(-c3noc(C(F)(F)F)n3)cc2)n1 [Compound 1.15, 3-[4-[(3,5-dimethylpyrazol-1-yl)methyl]phenyl]-5-(trifluoromethyl)-1,2,4-oxadiazole] | ≥ 80 | ≥ 80 | ≥ 80 | ≥ 80 | 53 to 58 | ≥ 80
3 | CCn1ncc(-c2cn(Cc3ccc(-c4noc(C(F)(F)F)n4)cc3)nn2)c1C [Compound 1.2, 3-[4-[[4-(1-ethyl-5-methyl-pyrazol-4-yl)triazol-1-yl]methyl]phenyl]-5-(trifluoromethyl)-1,2,4-oxadiazole] | ≥ 80 | ≥ 80 | ≥ 80 | ≥ 80 | 138.3 to 140.1 | ≥ 80
4 | FC(F)(F)c1nc(-c2ccc(Cn3cccn3)cc2)no1 [Compound 1.16, 3-[4-(pyrazol-1-ylmethyl)phenyl]-5-(trifluoromethyl)-1,2,4-oxadiazole] | ≥ 80 | ≥ 80 | ≥ 80 | ≥ 80 | 36 to 41 | ≥ 80
5 | FC(F)(F)c1nc(-c2ccc(Cn3ccnc3)cc2)no1 [Compound 1.18, 3-[4-(imidazol-1-ylmethyl)phenyl]-5-(trifluoromethyl)-1,2,4-oxadiazole] | ≥ 80 | ≥ 80 | ≥ 80 | ≥ 80 | 45 to 55 | ≥ 80
